Source: the supplement of paper PMC10307832

Legend:
Assay in all cases: relative viability (nuclei count vs DMSO), 5 days (fraction); higher = more cells survive
NCI-H1623 = test system: NCI-H1623
How it was run: (§1)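 A single step with final 0.05% Triton X-100, 1% formaldehyde and 1 ug/ml Hoechst fixed the cells and stained nuclei 5 days after treatment. Lung cancer cell lines in 1536-well plates had been treated by pin tool the day after seeding with one drug alone or a fixed anchor-drug dose plus five library-drug doses (not always all listed) in √10 steps, and nuclei were counted on 4× images. Relative viability is the ratio of nuclei in treated wells to nuclei in vehicle wells, taken as the median of duplicate plates.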

NCI-H2009 = test system: NCI-H2009
How it was run: as §1

A549 = test system: A549
How it was run: as §1

NCI-H460 = test system: NCI-H460
How it was run: as §1

Calu-6 = test system: Calu-6
How it was run: as §1

NCI-H1703 = test system: NCI-H1703
How it was run: as §1

EBC-1 = test system: EBC-1
How it was run: as §1

IA-LM = test system: IA-LM
How it was run: as §1

NCI-H1299 = test system: NCI-H1299
How it was run: as §1

NCI-H661 = test system: NCI-H661
How it was run: as §1

## CC1(C)CCC(c2ccc(Cl)cc2)=C(CN2CCN(c3ccc(C(=O)NS(=O)(=O)c4ccc(N[C@H](CCN5CCOCC5)CSc5ccccc5)c(S(=O)(=O)C(F)(F)F)c4)cc3)CC2)C1 [Navitoclax] + COc1cc2c(Oc3ccc(NC(=O)C4(C(=O)Nc5ccc(F)cc5)CC4)cc3F)ccnc2cc1OCCCN1CCOCC1 [Foretinib] (partner 0.25 µM)
NCI-H1623; first compound 0.005 µM
  relative viability: 0.863
NCI-H1623; first compound 0.01581 µM
  relative viability: 0.981
NCI-H1623; first compound 0.05 µM
  relative viability: 0.781
NCI-H1623; first compound 0.1581 µM
  relative viability: 0.842
NCI-H1623; first compound 0.5 µM
  relative viability: 0.811
NCI-H2009; first compound 0.005 µM
  relative viability: 1.22
NCI-H2009; first compound 0.01581 µM
  relative viability: 1.29
NCI-H2009; first compound 0.05 µM
  relative viability: 1.26
NCI-H2009; first compound 0.1581 µM
  relative viability: 1.26
NCI-H2009; first compound 0.5 µM
  relative viability: 1.27
A549; first compound 0.005 µM
  relative viability: 0.887
A549; first compound 0.01581 µM
  relative viability: 1.03
A549; first compound 0.05 µM
  relative viability: 0.994
A549; first compound 0.1581 µM
  relative viability: 1.02
A549; first compound 0.5 µM
  relative viability: 0.916
NCI-H460; first compound 0.005 µM
  relative viability: 0.991
NCI-H460; first compound 0.01581 µM
  relative viability: 1.02
NCI-H460; first compound 0.05 µM
  relative viability: 0.713
NCI-H460; first compound 0.1581 µM
  relative viability: 1.01
NCI-H460; first compound 0.5 µM
  relative viability: 0.941
Calu-6; first compound 0.005 µM
  relative viability: 0.852
Calu-6; first compound 0.01581 µM
  relative viability: 0.921
Calu-6; first compound 0.05 µM
  relative viability: 0.937
Calu-6; first compound 0.1581 µM
  relative viability: 0.916
Calu-6; first compound 0.5 µM
  relative viability: 0.894
NCI-H1703; first compound 0.005 µM
  relative viability: 0.472
NCI-H1703; first compound 0.01581 µM
  relative viability: 0.369
NCI-H1703; first compound 0.05 µM
  relative viability: 0.416
NCI-H1703; first compound 0.1581 µM
  relative viability: 0.337
NCI-H1703; first compound 0.5 µM
  relative viability: 0.353
EBC-1; first compound 0.005 µM
  relative viability: 0.0939
EBC-1; first compound 0.01581 µM
  relative viability: 0.118
EBC-1; first compound 0.05 µM
  relative viability: 0.113
EBC-1; first compound 0.1581 µM
  relative viability: 0.103
EBC-1; first compound 0.5 µM
  relative viability: 0.0895
IA-LM; first compound 0.005 µM
  relative viability: 1.18
IA-LM; first compound 0.01581 µM
  relative viability: 1.2
IA-LM; first compound 0.05 µM
  relative viability: 1.36
IA-LM; first compound 0.1581 µM
  relative viability: 1.27
IA-LM; first compound 0.5 µM
  relative viability: 1.18
NCI-H1299; first compound 0.005 µM
  relative viability: 1.1
NCI-H1299; first compound 0.01581 µM
  relative viability: 1.1
NCI-H1299; first compound 0.05 µM
  relative viability: 1.12
NCI-H1299; first compound 0.1581 µM
  relative viability: 1.11
NCI-H1299; first compound 0.5 µM
  relative viability: 1.11
NCI-H661; first compound 0.005 µM
  relative viability: 0.984
NCI-H661; first compound 0.01581 µM
  relative viability: 1.06
NCI-H661; first compound 0.05 µM
  relative viability: 0.87
NCI-H661; first compound 0.1581 µM
  relative viability: 0.988
NCI-H661; first compound 0.5 µM
  relative viability: 1

## NC(=O)Nc1cc(-c2cccc(F)c2)sc1C(=O)N[C@H]1CCCNC1 [AZD7762] + COc1cc2c(Oc3ccc(NC(=O)C4(C(=O)Nc5ccc(F)cc5)CC4)cc3F)ccnc2cc1OCCCN1CCOCC1 [Foretinib] (partner 0.25 µM)
NCI-H1623; first compound 0.01 µM
  relative viability: 0.874
NCI-H1623; first compound 0.03162 µM
  relative viability: 0.821
NCI-H1623; first compound 0.1 µM
  relative viability: 1
NCI-H1623; first compound 0.3162 µM
  relative viability: 0.96
NCI-H1623; first compound 1 µM
  relative viability: 0.664
NCI-H2009; first compound 0.01 µM
  relative viability: 1.25
NCI-H2009; first compound 0.03162 µM
  relative viability: 1.27
NCI-H2009; first compound 0.1 µM
  relative viability: 1.27
NCI-H2009; first compound 0.3162 µM
  relative viability: 1.13
NCI-H2009; first compound 1 µM
  relative viability: 0.962
A549; first compound 0.01 µM
  relative viability: 1.02
A549; first compound 0.03162 µM
  relative viability: 0.928
A549; first compound 0.1 µM
  relative viability: 0.942
A549; first compound 0.3162 µM
  relative viability: 0.837
A549; first compound 1 µM
  relative viability: 0.259
NCI-H460; first compound 0.01 µM
  relative viability: 1.12
NCI-H460; first compound 0.03162 µM
  relative viability: 1
NCI-H460; first compound 0.1 µM
  relative viability: 1.01
NCI-H460; first compound 0.3162 µM
  relative viability: 0.964
NCI-H460; first compound 1 µM
  relative viability: 0.176
Calu-6; first compound 0.01 µM
  relative viability: 0.805
Calu-6; first compound 0.03162 µM
  relative viability: 0.83
Calu-6; first compound 0.1 µM
  relative viability: 0.831
Calu-6; first compound 0.3162 µM
  relative viability: 0.264
Calu-6; first compound 1 µM
  relative viability: 0.0933
NCI-H1703; first compound 0.01 µM
  relative viability: 0.398
NCI-H1703; first compound 0.03162 µM
  relative viability: 0.34
NCI-H1703; first compound 0.1 µM
  relative viability: 0.348
NCI-H1703; first compound 0.3162 µM
  relative viability: 0.292
NCI-H1703; first compound 1 µM
  relative viability: 0.174
EBC-1; first compound 0.01 µM
  relative viability: 0.101
EBC-1; first compound 0.03162 µM
  relative viability: 0.0952
EBC-1; first compound 0.1 µM
  relative viability: 0.105
EBC-1; first compound 0.3162 µM
  relative viability: 0.119
EBC-1; first compound 1 µM
  relative viability: 0.116
IA-LM; first compound 0.01 µM
  relative viability: 1.44
IA-LM; first compound 0.03162 µM
  relative viability: 1.29
IA-LM; first compound 0.1 µM
  relative viability: 1.48
IA-LM; first compound 0.3162 µM
  relative viability: 1.29
IA-LM; first compound 1 µM
  relative viability: 0.59
NCI-H1299; first compound 0.01 µM
  relative viability: 1.09
NCI-H1299; first compound 0.03162 µM
  relative viability: 1.15
NCI-H1299; first compound 0.1 µM
  relative viability: 1.09
NCI-H1299; first compound 0.3162 µM
  relative viability: 1.07
NCI-H1299; first compound 1 µM
  relative viability: 0.622
NCI-H661; first compound 0.01 µM
  relative viability: 1.08
NCI-H661; first compound 0.03162 µM
  relative viability: 1.1
NCI-H661; first compound 0.1 µM
  relative viability: 1.12
NCI-H661; first compound 0.3162 µM
  relative viability: 1.03
NCI-H661; first compound 1 µM
  relative viability: 0.598
